Assay results published in US20170066795A1, “SOLID PRODRUG FORMS OF 2'-CHLORO-2'-METHYL URIDINE FOR HCV” (IDENIX PHARMACEUTICALS LLC, priority 2014, published 2017).

Assays:
[1] = Example 4 Group B: safety (adverse events) in genotype 1 HCV-infected subjects; assay type: in vivo, human
Procedure: (§1) Five sequential cohorts of 3 HCV-infected subjects (HCV) per cohort received under fasted conditions open-label Compound I at single ascending doses of 10, 25, 50, 150, and 300 mg (below, “Group B”).
(§2) For Groups A and B, dosing occurred between approximately 08:00 AM and 10:00 AM on each dosing day. Dosing was fasted for all subjects in Groups A and B. For fasted dosing, subjects observed a fasting period of approximately 10 hours prior to each dose and for an additional 4 hours post-dose.
Safety measurements included clinical history, routine laboratory evaluation, physical examination, 12-lead ECG, vital signs, adverse event (AE) assessment.

[2] = Example 4 Group B: plasma pharmacokinetics in genotype 1 HCV-infected subjects (LC/MS/MS); conditions: human, in vivo, fasted; for AUC(0-inf) / Cmax / half-life: mean ± SD; for AUC(0-inf): read-out: AUC∞ of Compound I; for Cmax: read-out: Cmax of Compound I; for half-life: read-out: t1/2 of Compound I (converted); for Tmax: median, read-out: Tmax of Compound I
Procedure: as §1
(§3) Compound I was provided as size 0, white, hard hydroxypropyl methylcellulose (HPMC) capsules for oral administration at 5 mg, 25 mg, and 50 mg strengths. The same powder blend containing 33.3% weight/weight (w/w) Compound I, a diluent, and a disintegrant is used to fill the capsules for all dose strengths. Matching placebo capsules will also be provided. Storage conditions will be provided on the study drug container label.
as §2
(§4) Plasma samples were obtained up to 120 hours after dosing and the levels of Compound I and its Nucleoside metabolite were measured by using validated LC/MS/MS methodology. Plasma pharmacokinetic parameters were obtained by using non-compartmental analysis with parameters reported as mean±standard deviation (SD) except for Tmax where median (min-max) is shown.

[3] = Example 4 Group A: plasma pharmacokinetics in healthy volunteers (LC/MS/MS); conditions: human, in vivo; for AUC(0-inf) / Cmax / half-life: mean ± SD; for AUC(0-inf): read-out: AUC∞ of Compound I; for Cmax: read-out: Cmax of Compound I; for half-life: read-out: t1/2 of Compound I (converted); for Tmax: median, read-out: Tmax of Compound I
Procedure: Six sequential cohorts of 8 health volunteers per cohort were randomized via a computer-generated randomization list in the ratio of 2:6. Two of the healthy volunteers (HV) received placebo and the remaining six received Compound I under fasted conditions at single ascending doses of 10, 25, 50, 150, or 300 mg, or multiple doses at 300 mg QD for 7 days (below, “Group A”).
as §3, §2, §4

[4] = 10 mg, 10 mg single dose, fasted
[5] = 25 mg, 25 mg single dose, fasted
[6] = 50 mg, 50 mg single dose, fasted
[7] = 150 mg, 150 mg single dose, fasted
[8] = 300 mg, 300 mg single dose, fasted

CC(C)OC(=O)[C@@H](C)N[P@@](=O)(OC[C@H]1O[C@@H](n2ccc(=O)[nH]c2=O)[C@](C)(Cl)[C@@H]1O)Oc1ccccc1 [Compound I]
Adverse event: Constipation ([1]; 10 mg single dose (n = 3)): 0 n, % | Adverse event: Diarrhea ([1]; 10 mg single dose (n = 3)): 0 n, % | Adverse event: Dry mouth ([1]; 10 mg single dose (n = 3)): 0 n, % | Adverse event: Dry skin ([1]; 10 mg single dose (n = 3)): 0 n, % | Adverse event: Dysuria ([1]; 10 mg single dose (n = 3)): 0 n, % | Adverse event: Fatigue ([1]; 10 mg single dose (n = 3)): 0 n, % | Adverse event: Feces hard ([1]; 10 mg single dose (n = 3)): 0 n, % | Adverse event: Flatulence ([1]; 10 mg single dose (n = 3)): 0 n, % | Adverse event: Headache ([1]; 10 mg single dose (n = 3)): 0 n, % | Adverse event: Myalgia ([1]; 10 mg single dose (n = 3)): 1 (33.3) n, % | Adverse event: Neck pain ([1]; 10 mg single dose (n = 3)): 0 n, % | Adverse event: Pruritus ([1]; 10 mg single dose (n = 3)): 0 n, % | Adverse event: Pruritus generalized ([1]; 10 mg single dose (n = 3)): 0 n, % | Adverse event: Vessel puncture site bruise ([1]; 10 mg single dose (n = 3)): 0 n, % | Subjects with AE ([1]; 10 mg single dose (n = 3)): 1 (33.3) n, % | Adverse event: Constipation ([1]; 25 mg single dose (n = 3)): 1 (33.3) n, % | Adverse event: Diarrhea ([1]; 25 mg single dose (n = 3)): 0 n, % | Adverse event: Dry mouth ([1]; 25 mg single dose (n = 3)): 0 n, % | Adverse event: Dry skin ([1]; 25 mg single dose (n = 3)): 0 n, % | Adverse event: Dysuria ([1]; 25 mg single dose (n = 3)): 0 n, % | Adverse event: Fatigue ([1]; 25 mg single dose (n = 3)): 1 (33.3) n, % | Adverse event: Feces hard ([1]; 25 mg single dose (n = 3)): 0 n, % | Adverse event: Flatulence ([1]; 25 mg single dose (n = 3)): 1 (33.3) n, % | Adverse event: Headache ([1]; 25 mg single dose (n = 3)): 1 (33.3) n, % | Adverse event: Myalgia ([1]; 25 mg single dose (n = 3)): 0 n, % | Adverse event: Neck pain ([1]; 25 mg single dose (n = 3)): 1 (33.3) n, % | Adverse event: Pruritus ([1]; 25 mg single dose (n = 3)): 0 n, % | Adverse event: Pruritus generalized ([1]; 25 mg single dose (n = 3)): 0 n, % | Adverse event: Vessel puncture site bruise ([1]; 25 mg single dose (n = 3)): 0 n, % | Subjects with AE ([1]; 25 mg single dose (n = 3)): 2 (66.7) n, % | Adverse event: Constipation ([1]; 50 mg single dose (n = 3)): 0 n, % | Adverse event: Diarrhea ([1]; 50 mg single dose (n = 3)): 0 n, % | Adverse event: Dry mouth ([1]; 50 mg single dose (n = 3)): 0 n, % | Adverse event: Dry skin ([1]; 50 mg single dose (n = 3)): 0 n, % | Adverse event: Dysuria ([1]; 50 mg single dose (n = 3)): 1 (33.3) n, % | Adverse event: Fatigue ([1]; 50 mg single dose (n = 3)): 0 n, % | Adverse event: Feces hard ([1]; 50 mg single dose (n = 3)): 0 n, % | Adverse event: Flatulence ([1]; 50 mg single dose (n = 3)): 0 n, % | Adverse event: Headache ([1]; 50 mg single dose (n = 3)): 0 n, % | Adverse event: Myalgia ([1]; 50 mg single dose (n = 3)): 0 n, % | Adverse event: Neck pain ([1]; 50 mg single dose (n = 3)): 0 n, % | Adverse event: Pruritus ([1]; 50 mg single dose (n = 3)): 0 n, % | Adverse event: Pruritus generalized ([1]; 50 mg single dose (n = 3)): 0 n, % | Adverse event: Vessel puncture site bruise ([1]; 50 mg single dose (n = 3)): 0 n, % | Subjects with AE ([1]; 50 mg single dose (n = 3)): 1 (33.3) n, % | Adverse event: Constipation ([1]; 150 mg single dose (n = 3)): 0 n, % | Adverse event: Diarrhea ([1]; 150 mg single dose (n = 3)): 0 n, % | Adverse event: Dry mouth ([1]; 150 mg single dose (n = 3)): 1 (33.3) n, % | Adverse event: Dry skin ([1]; 150 mg single dose (n = 3)): 1 (33.3) n, % | Adverse event: Dysuria ([1]; 150 mg single dose (n = 3)): 0 n, % | Adverse event: Fatigue ([1]; 150 mg single dose (n = 3)): 1 (33.3) n, % | Adverse event: Feces hard ([1]; 150 mg single dose (n = 3)): 0 n, % | Adverse event: Flatulence ([1]; 150 mg single dose (n = 3)): 0 n, % | Adverse event: Headache ([1]; 150 mg single dose (n = 3)): 0 n, % | Adverse event: Myalgia ([1]; 150 mg single dose (n = 3)): 0 n, % | Adverse event: Neck pain ([1]; 150 mg single dose (n = 3)): 0 n, % | Adverse event: Pruritus ([1]; 150 mg single dose (n = 3)): 1 (33.3) n, % | Adverse event: Pruritus generalized ([1]; 150 mg single dose (n = 3)): 1 (33.3) n, % | Adverse event: Vessel puncture site bruise ([1]; 150 mg single dose (n = 3)): 0 n, % | Subjects with AE ([1]; 150 mg single dose (n = 3)): 2 (66.7) n, % | Adverse event: Constipation ([1]; 300 mg single dose (n = 3)): 0 n, % | Adverse event: Diarrhea ([1]; 300 mg single dose (n = 3)): 1 (33.3) n, % | Adverse event: Dry mouth ([1]; 300 mg single dose (n = 3)): 0 n, % | Adverse event: Dry skin ([1]; 300 mg single dose (n = 3)): 0 n, % | Adverse event: Dysuria ([1]; 300 mg single dose (n = 3)): 0 n, % | Adverse event: Fatigue ([1]; 300 mg single dose (n = 3)): 0 n, % | Adverse event: Feces hard ([1]; 300 mg single dose (n = 3)): 1 (33.3) n, % | Adverse event: Flatulence ([1]; 300 mg single dose (n = 3)): 0 n, % | Adverse event: Headache ([1]; 300 mg single dose (n = 3)): 0 n, % | Adverse event: Myalgia ([1]; 300 mg single dose (n = 3)): 0 n, % | Adverse event: Neck pain ([1]; 300 mg single dose (n = 3)): 0 n, % | Adverse event: Pruritus ([1]; 300 mg single dose (n = 3)): 0 n, % | Adverse event: Pruritus generalized ([1]; 300 mg single dose (n = 3)): 0 n, % | Adverse event: Vessel puncture site bruise ([1]; 300 mg single dose (n = 3)): 1 (33.3) n, % | Subjects with AE ([1]; 300 mg single dose (n = 3)): 2 (66.7) n, % | AUC(0-inf) ([2]; 10 mg single dose): 40 ± 12.6 ng·h/mL | Cmax ([2]; 10 mg single dose): 26.1 ± 11.9 ng/mL | half-life ([2]; 10 mg single dose): 1.47 ± 0.7 h | Tmax ([2]; 10 mg single dose): 0.5 h | AUC(0-inf) ([2]; 25 mg single dose): 140 ± 68.8 ng·h/mL | Cmax ([2]; 25 mg single dose): 68.4 ± 18.7 ng/mL | half-life ([2]; 25 mg single dose): 0.97 ± 0.29 h | Tmax ([2]; 25 mg single dose): 1 h | AUC(0-inf) ([2]; 50 mg single dose): 197 ± 40.1 ng·h/mL | Cmax ([2]; 50 mg single dose): 91.9 ± 10.7 ng/mL | half-life ([2]; 50 mg single dose): 1.19 ± 0.46 h | Tmax ([2]; 50 mg single dose): 1 h | AUC(0-inf) ([2]; 150 mg single dose): 664 ± 160 ng·h/mL | Cmax ([2]; 150 mg single dose): 297 ± 34 ng/mL | half-life ([2]; 150 mg single dose): 1.13 ± 0.29 h | Tmax ([2]; 150 mg single dose): 0.5 h | AUC(0-inf) ([2]; 300 mg single dose): 818 ± 256 ng·h/mL | Cmax ([2]; 300 mg single dose): 367 ± 537 ng/mL | half-life ([2]; 300 mg single dose): 1.58 ± 0.02 h | Tmax ([2]; 300 mg single dose): 1 h | AUC(0-inf) [3, 4]: 26 ± 7.6 ng·h/mL | Cmax [3, 4]: 17.4 ± 6.64 ng/mL | half-life [3, 4]: 0.87 ± 0.25 h | Tmax [3, 4]: 0.8 h | AUC(0-inf) [3, 5]: 51.2 ± 12.8 ng·h/mL | Cmax [3, 5]: 28.8 ± 13.4 ng/mL | half-life [3, 5]: 0.91 ± 0.26 h | Tmax [3, 5]: 1 h | AUC(0-inf) [3, 6]: 162 ng·h/mL | Cmax [3, 6]: 82.4 ± 61.6 ng/mL | half-life [3, 6]: 1.04 ± 0.34 h | Tmax [3, 6]: 1 h | AUC(0-inf) [3, 7]: 1110 ± 690 ng·h/mL | Cmax [3, 7]: 667 ± 324 ng/mL | half-life [3, 7]: 1.16 ± 0.24 h | Tmax [3, 7]: 1 h | AUC(0-inf) ([3]; 300 mg, 300 mg QD, D1, fasted): 2170 ± 660 ng·h/mL | Cmax ([3]; 300 mg, 300 mg QD, D1, fasted): 1290 ± 333 ng/mL | half-life ([3]; 300 mg, 300 mg QD, D1, fasted): 1.88 ± 0.72 h | Tmax ([3]; 300 mg, 300 mg QD, D1, fasted): 0.8 h | AUC(0-inf) ([3]; 300 mg, 300 mg QD, D7, fasted): 2200 ± 494 ng·h/mL | Cmax ([3]; 300 mg, 300 mg QD, D7, fasted): 1280 ± 238 ng/mL | half-life ([3]; 300 mg, 300 mg QD, D7, fasted): 2.76 ± 1.79 h | Tmax ([3]; 300 mg, 300 mg QD, D7, fasted): 0.5 h | AUC(0-inf) [3, 8]: 1680 ± 725 ng·h/mL | Cmax [3, 8]: 924 ± 441 ng/mL | half-life [3, 8]: 1.19 ± 0.34 h | Tmax [3, 8]: 0.5 h
